Experimental data published in patent EP0571593B1, “NEW NON IONIC IODIZED AGENTS FOR X-RAY CONTRASTING, METHOD FOR PREPARING THEM AND GALENICAL COMPOSITIONS CONTAINING THEM” (CENTRO INVESTIGACION JUSTESA IMAGEN S.A., priority 1991, dated 1993).

What was measured:
Type in all cases: physicochemical
[1] = Viscosity of aqueous solutions; conditions: 30°C, 300mg I/ml
[2] = Iodine content
[3] = Osmolality of aqueous solutions; conditions: 300mg I/ml

Compound | Viscosity mPa s (30°C) at 300mg I/ml [1] | % Iodine [2] | Osmolality mosm/kg at 300mg I/ml [3]
COCC(=O)Nc1c(I)c(C(=O)NCC(O)CO)c(I)c(C(=O)N(C)CC(=O)N(C)c2c(I)c(C(=O)NCC(O)CO)c(I)c(C(=O)NCC(O)CO)c2I)c1I (stereo not drawn) [EXAMPLE 12, N,N'-bis-(2,3-dihydroxypropyl)-5-{3-[N-(2,3-dihydroxypropyl)carbamoyl]-5-methoxyacetamido-2,4,6-triiodobenzoyl -N-methylaminoacetyl-N-methylamino}-2,4,6-triiodoisophthalamide] | 8,6 mPa s | 51,6% | 130 mosm/kg
COCC(=O)Nc1c(I)c(C(=O)NCC(O)CO)c(I)c(C(=O)N(CC(=O)Nc2c(I)c(C(=O)NCC(O)CO)c(I)c(C(=O)NCC(O)CO)c2I)CC(O)CO)c1I (stereo not drawn) [EXAMPLE 15, N,N'-bis-(2,3-dihydroxypropyl)-5-{3-[N-(2,3-dihydroxypropyl)carbamoyl]-5-methoxyacetamido-2,4,6-triiodobenzoyl -N-(2,3-dihydroxypropyl)aminoacetamido}-2,4,6-triiodo isophthalamide] | 8,6 mPa s | 50% | 162 mosm/kg
COCC(=O)Nc1c(I)c(C(=O)NCC(O)CO)c(I)c(C(=O)N(CCO)CC(=O)Nc2c(I)c(C(=O)NC(CO)C(O)CO)c(I)c(C(=O)NC(CO)C(O)CO)c2I)c1I (stereo not drawn) [EXAMPLE 22, N,N'-bis-(1-hydroxymethyl-2,3-dihydroxypropyl)-5-{3-[N-(2,3-dihydroxypropyl)carbamoyl]-5-methoxyacetamido-2,4,6-triiodobenzoyl-N-(2-hydroxyethyl)aminoacetamido}-2,4,6-triiodo isophthalamide] | 10,0 mPa s | 49% | 118 mosm/kg
CN(CC(=O)N(C)c1c(I)c(C(=O)N(C)CC(O)CO)c(I)c(C(=O)N(C)CC(O)CO)c1I)C(=O)c1c(I)c(NC(=O)CO)c(I)c(C(=O)NCC(O)CO)c1I (stereo not drawn) [EXAMPLE 24, N,N'-bis-(2,3-dihydroxypropyl)-N,N'-dimethyl-5-{3-[N-(2,3-dihydroxypropyl)carbamoyl]-5-hydroxyacetamido-2,4,6-triiodobenzoyl-N-methylaminoacetyl-N-methylamino}-triiodo isophthalamide] | 7,1 mPa s | 51,1% | 165 mosm/kg
COCC(=O)Nc1c(I)c(C(=O)NCC(O)CO)c(I)c(C(=O)N(C)CC(=O)N(C)c2c(I)c(C(=O)N(C)CC(O)CO)c(I)c(C(=O)N(C)CC(O)CO)c2I)c1I (stereo not drawn) [EXAMPLE 25, N,N'-bis-(2,3-dihydroxypropyl)-N,N'-dimethyl-5-{3-[N-(2,3-dihydroxypropyl)carbamoyl]-5-methoxyacetamido-2,4,6-triiodobenzoyl-N-methylaminoacetyl-N-methylamino}-2,4,6-triiodo isophthalamide] | 8,0 mPa s | 50,6% | 140 mosm/kg
CN(CC(O)CO)C(=O)c1c(I)c(C(=O)N(C)CC(O)CO)c(I)c(N(C)C(=O)CNC(=O)c2c(I)c(NC(=O)CO)c(I)c(C(=O)NCC(O)CO)c2I)c1I (stereo not drawn) [EXAMPLE 26, N,N'-bis-(2,3-dihydroxypropyl)-N,N'-dimethyl-5-{3-[N-(2,3-dihydroxypropyl)carbamoyl]-5-hydroxyacetamido-2,4,6-triiodobenzoylaminoacetyl-N-methylamino}-2,4,6-triiodoiso phthalamide] | 7,7 mPa s | 51,6% | 145 mosm/kg
CC(=O)Nc1c(I)c(C(=O)NCC(O)CO)c(I)c(C(=O)N(C)CC(=O)N(C)c2c(I)c(C(=O)NCC(O)CO)c(I)c(C(=O)NCC(O)CO)c2I)c1I (stereo not drawn) [EXAMPLE 37, N,N'-bis-(2,3-dihydroxypropyl)-5-{3-[N-(2,3-dihydroxypropyl)carbamoyl]-5-acetamido-2,4,6-triiodobenzoyl-N-methylacetyl-N-methylamino}-2,4,6-triiodoisophthalamide] | 9,9 mPa s | 52,6% | 130 mosm/kg
CC(=O)Nc1c(I)c(C(=O)NCC(O)CO)c(I)c(C(=O)N(C)CC(=O)N(C)c2c(I)c(C(=O)NC(CO)C(O)CO)c(I)c(C(=O)NC(CO)C(O)CO)c2I)c1I (stereo not drawn) [EXAMPLE 38, N,N'-bis-(1-hydroxymethyl-2,3-dihydroxypropyl)-5-{3-[N-(2,3-dihydroxypropyl]carbamoyl]-5-acetamido-2,4,6-triiodobenzoyl -N-methylacetyl-N-methylamino}-2,4,6-triiodoisophthalamide] | 9,1 mPa s | 50,6% | 155 mosm/kg
COCC(=O)Nc1c(I)c(C(=O)NCC(O)CO)c(I)c(C(=O)N(CC(=O)N(C)c2c(I)c(C(=O)NCC(O)CO)c(I)c(C(=O)NCC(O)CO)c2I)CC(O)COC)c1I (stereo not drawn) [EXAMPLE 39, N,N'-bis-(2,3-dihydroxypropyl)-5-{3-[N-(2,3-dihydroxypropyl)carbamoyl]-5-methoxyacetamido-2,4,6-triiodobenzoyl--N-(2-hydroxy-3-methoxypropyl)aminoacetyl-N-methylamino} -2,4,6-triiodoisophthalamide] | 9,6 mPa s | 49,1% | 190 mosm/kg

Next, values leading:

Viscosity mPa s (30°C) at 300mg I/ml [1] | % Iodine [2] | Osmolality mosm/kg at 300mg I/ml [3] | Compound
7,2 mPa s | 50,5% | 190 mosm/kg | O=C(CN(CC(O)CO)C(=O)c1c(I)c(NC(=O)CO)c(I)c(C(=O)NCC(O)CO)c1I)Nc1c(I)c(C(=O)NCC(O)CO)c(I)c(C(=O)NCC(O)CO)c1I (stereo not drawn) [EXAMPLE 13, N,N'-bis-(2,3-dihydroxypropyl)-5-{3-[N-(2,3-dihydroxypropyl)carbamoyl]-5-hydroxyacetamido-2,4,6-triiodobenzoyl-N-(2,3-dihydroxypropyl)aminoacetamido}-2,4,6-triiodoisophthalamide]
7,6 mPa s | 50,5% | 131 mosm/kg | O=C(NCCO)c1c(I)c(C(=O)NCCO)c(I)c(N(CCO)C(=O)CN(CCO)C(=O)c2c(I)c(C(=O)NCC(O)CO)c(I)c(N(CCO)C(=O)CO)c2I)c1I (stereo not drawn) [EXAMPLE 16, N,N'-bis-(2-hydroxyethyl)-5-{3-[N-(2,3-dihydroxypropyl)-carbamoyl]-5-hydroxyacetyl-N-(2-hydroxyethyl)amino-2,4,6-tri-iodobenzoyl-N-(2-hydroxyethyl)amino-acetyl-N-(2-hydroxyethyl)amino}-2,4,6-triiodoisophthalamide]
7,9 mPa s | 50,5% | 162 mosm/kg | CC(=O)Nc1c(I)c(C(=O)NCC(O)CO)c(I)c(C(=O)N(CC(=O)N(C)c2c(I)c(C(=O)NCC(O)CO)c(I)c(C(=O)NCC(O)CO)c2I)CC(O)CO)c1I (stereo not drawn) [EXAMPLE 23, N,N -bis-(2,3-dihydroxypropyl)-5-{3-[N-(2,3-dihydroxypropyl)carbamoyl]-5-acetamido-2,4,6-triiodobenzoyl-N-(2,3-dihydroxypropyl)aminoacetyl-N-methylamino}-2,4,6-triiodoisophthalamide]
8,2 mPa s | 50% | 155 mosm/kg | COCC(=O)N(CCO)c1c(I)c(C(=O)NCC(O)CO)c(I)c(C(=O)N(CCO)CC(=O)N(CCO)c2c(I)c(C(=O)NCCO)c(I)c(C(=O)NCCO)c2I)c1I (stereo not drawn) [EXAMPLE 32, N,N'-bis-(2-hydroxyethyl)-5-{3-[N-(2,3-dihydroxypropyl)carbamoyl]-5-methoxyacetyl-N-(2-hydroxyethyl)amino-2,4,6-triiodobenzoyl-N-(2-hydroxyethyl)aminoacetyl-N-(2-hydroxyethyl)amino}-2,4,6-triiodoisophthalamide]
8,2 mPa s | 49,1% | 214 mosm/kg | COCC(=O)N(CCO)c1c(I)c(C(=O)NCC(O)CO)c(I)c(C(=O)N(C)CC(=O)N(CCO)c2c(I)c(C(=O)NCC(O)CO)c(I)c(C(=O)NCC(O)CO)c2I)c1I (stereo not drawn) [EXAMPLE 35, N,N'-bis-(2,3-dihydroxypropyl)-5-{3-[N-(2,3-dihydroxypropyl)carbamoyl]-5-methoxyacetyl-N-(2-hydroxyethyl)amino-2,4,6-triiodobenzoyl-N-methylaminoacetyl-N-(2-hydroxyethyl)amino}-2,4,6 triiodoisophthalamide]
10,2 mPa s | 49,1% | 160 mosm/kg | COCCN(C(=O)CO)c1c(I)c(C(=O)NCC(=O)N(CCOC)c2c(I)c(C(=O)NCC(O)CO)c(I)c(C(=O)NCC(O)CO)c2I)c(I)c(C(=O)NCC(O)CO)c1I (stereo not drawn) [EXAMPLE 40, N,N'-bis-(2,3-dihydroxypropyl)-5-{3-[N-(2,3-dihydroxypropyl)carbamoyl]-5-hydroxyacetyl-N-(2-methoxyethyl)amino-2,4,6-triiodobenzoylaminoacetyl-N-(2-methoxyethyl)amino} -2,4,6-triiodoisophthalamide]
9,0 mPa s | 50,0% | 135 mosm/kg | COCC(=O)Nc1c(I)c(C(=O)N(C)CC(=O)N(C)c2c(I)c(C(=O)NCC(O)CO)c(I)c(C(=O)NCC(O)CO)c2I)c(I)c(C(=O)N(CCO)CC(O)CO)c1I (stereo not drawn) [EXAMPLE 41, N,N'-bis-(2,3-dihydroxypropyl)-5-{3-[N-(2-hydroxyethyl)-N-(2,3-dihydroxypropyl)carbamoyl]-5-methoxyacetamido-2,4,6-triiodobenzoyl-N-methylaminoacetyl-N-methylamino} --2,4,6-triiodoisophthalamide]
8,8 mPa s | 49,6% | 180 mosm/kg | CC(=O)Nc1c(I)c(C(=O)NCC(O)CO)c(I)c(C(=O)N(C)CC(=O)N(C)c2c(I)c(C(=O)N(CCO)CC(O)CO)c(I)c(C(=O)N(CCO)CC(O)CO)c2I)c1I (stereo not drawn) [EXAMPLE 42, N,N'-bis-(2-hydroxyethyl)-N,N'-bis-(2,3-dihydroxypropyl)-5-{3-[N-(2,3-dihydroxypropyl)carbamoyl]-5-acetamido-2,4,6-triiodobenzoyl-N-methylaminoacetyl-N-methylamino}-2,4,6-triiodoisophthalamide]
